Laboratory results: patent US20100298141A1, “SUBSTITUTED PYRIDINE N-OXIDE HERBICIDES” (E. I. DU PONT DE NEMOURS AND COMPANY, priority 2007, published 2010)

Tests used:
crabgrass = experiment: Test A pre-/postemergence greenhouse test; assay type: in vivo, Digitaria sanguinalis; details: for Plant response rating, Crabgrass, Large: 0 to 100 scale where 0 is no effect and 100 is complete control; for Crabgrass, Large plant response rating: 0 to 100 scale
Method in brief: (§1)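 Each test compound, dissolved in a non-phytotoxic solvent mixture with surfactant, was sprayed directly onto seeded soil (loam/sand blend) and, at the same moment, onto seedlings carrying one to two leaves. Around ten greenhouse days later, plants were rated visually for injury relative to untreated controls.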

giant foxtail = experiment: Test A pre-/postemergence greenhouse test; assay type: in vivo, Setaria faberi; details: for Plant response rating, Foxtail, Giant: 0 to 100 scale where 0 is no effect and 100 is complete control; for Foxtail, Giant plant response rating: 0 to 100 scale
Method in brief: as §1

morningglory [1] = experiment: Test A pre-/postemergence greenhouse test; assay type: in vivo, Ipomoea spp.; details: for Plant response rating, Morningglory: 0 to 100 scale where 0 is no effect and 100 is complete control; for Morningglory plant response rating: 0 to 100 scale
Method in brief: as §1

wheat [2] = experiment: Test A pre-/postemergence greenhouse test; assay type: in vivo, Triticum aestivum; details: for Plant response rating, Wheat: 0 to 100 scale where 0 is no effect and 100 is complete control; for Wheat plant response rating: 0 to 100 scale
Method in brief: as §1

corn = experiment: Test A pre-/postemergence greenhouse test; assay type: in vivo, Zea mays; details: for Plant response rating, Corn: 0 to 100 scale where 0 is no effect and 100 is complete control; for Corn plant response rating: 0 to 100 scale
Method in brief: as §1

Italian ryegrass = experiment: Test C pre-/postemergence test; assay type: in vivo, Lolium multiflorum
Method in brief: (§2)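 Test chemicals were formulated with surfactant in a non-phytotoxic solvent and sprayed both on freshly planted seeds (preemergence) and on 1- to 4-leaf plants of 2–18 cm (postemergence). Flooded-paddy pots received compound directly into 3 cm of standing water, maintained for the test.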

wheat [3] = experiment: Test C pre-/postemergence test; assay type: in vivo, Triticum aestivum
Method in brief: as §2

catchweed bedstraw = experiment: Test C pre-/postemergence test; assay type: in vivo, Galium aparine
Method in brief: as §2

bermudagrass = experiment: Test C pre-/postemergence test; assay type: in vivo, Cynodon dactylon
Method in brief: as §2

Goosegrass = experiment: Test C pre-/postemergence test; assay type: in vivo, Eleusin indica
Method in brief: as §2

morningglory [4] = experiment: Test C pre-/postemergence test; assay type: in vivo, Ipomoea coccinea
Method in brief: as §2

yellow nutsedge = experiment: Test C pre-/postemergence test; assay type: in vivo, Cyperus esculentus
Method in brief: as §2

pigweed = experiment: Test C pre-/postemergence test; assay type: in vivo, Amaranthus retroflexus
Method in brief: as §2

soybean = experiment: Test C pre-/postemergence test; assay type: in vivo, Glycine max; details: for Soybean plant response rating: preemergence, scale 0 (no effect) to 100 (complete control)
Method in brief: as §2

[5] = tested on: common (oilseed) sunflower; experiment: Test C pre-/postemergence test; assay type: in vivo, Helianthus annuus
Method in brief: as §2

umbrella sedge = experiment: Test C flooded paddy test; assay type: in vivo, Cyperus difformis; details: Flood, 250 g ai/ha; scale 0 to 100, 0 no effect, 100 complete control; 13 to 15 days
Method in brief: (§3)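 Flooded 3 cm over soil; compound into paddy water; depth kept constant. Greenhouse 13–15 d.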

barnyardgrass = experiment: Test C flooded paddy test; assay type: in vivo, Echinochloa crus-galli; details: Flood, scale 0 to 100, 0 no effect, 100 complete control, 13 to 15 days
Method in brief: as §3

[6] = Postemergence, 500 g ai/ha, 0 is no effect, 100 is complete control
[7] = Preemergence, 125 g ai/ha, 0 no effect, 100 complete control
[8] = 62 g ai/ha, Preemergence, scale 0 to 100
[9] = 125 g ai/ha, preemergence, scale 0 (no effect) to 100 (complete control)
[10] = Postemergence, 125 g ai/ha, scale 0 to 100, 0 no effect, 100 complete control
[11] = Postemergence, 250 g ai/ha, scale 0 to 100, 0 no effect, 100 complete control
[12] = Preemergence, 31 g ai/ha, scale 0 to 100 (0 no effect, 100 complete control)
[13] = preemergence, 250 g ai/ha, scale 0 (no effect) to 100 (complete control)
[14] = Postemergence, 62 g ai/ha, scale 0 to 100, 0 no effect, 100 complete control

[O-][n+]1cc(Cl)ccc1[S+]([O-])Cc1c(C(F)(F)F)nn(CC(F)(F)F)c1Cl (stereo not shown) [Compound 47]
Plant response rating, Crabgrass, Large (crabgrass; Postemergence, 125 g ai/ha): 80 | Crabgrass, Large plant response rating (crabgrass; [6]): 90 | Crabgrass, Large plant response rating (crabgrass; [7]): 80 | Plant response rating, Crabgrass, Large (crabgrass; Preemergence, 500 g ai/ha): 100 | Plant response rating, Foxtail, Giant (giant foxtail; Postemergence, 125 g ai/ha): 80 | Foxtail, Giant plant response rating (giant foxtail; [6]): 90 | Foxtail, Giant plant response rating (giant foxtail; [7]): 100 | Plant response rating, Foxtail, Giant (giant foxtail; Preemergence, 500 g ai/ha): 100 | Plant response rating, Morningglory (morningglory [1]; Postemergence, 125 g ai/ha): 60 | Morningglory plant response rating (morningglory [1]; [6]): 90 | Morningglory plant response rating (morningglory [1]; [7]): 60 | Plant response rating, Morningglory (morningglory [1]; Preemergence, 500 g ai/ha): 80 | Plant response rating, Wheat (wheat [2]; Postemergence, 125 g ai/ha): 50 | Wheat plant response rating (wheat [2]; [6]): 60 | Wheat plant response rating (wheat [2]; [7]): 60 | Plant response rating, Wheat (wheat [2]; Preemergence, 500 g ai/ha): 90 | Plant response rating, Corn (corn; Postemergence, 125 g ai/ha): 50 | Corn plant response rating (corn; [6]): 70 | Corn plant response rating (corn; [7]): 50 | Plant response rating, Corn (corn; Preemergence, 500 g ai/ha): 90 | Ryegrass, Italian plant response rating (Italian ryegrass; [8]): 20 | Ryegrass, Italian plant response rating (Italian ryegrass; [9]): 50 | Plant response rating (0 to 100), Ryegrass, Italian (Italian ryegrass; Postemergence, 31 g ai/ha): 0 | Plant response rating (0 to 100), Ryegrass, Italian (Italian ryegrass; Postemergence, 62 g ai/ha): 0 | Plant response rating, Ryegrass, Italian (Italian ryegrass; [10]): 0 | Plant response rating, Ryegrass, Italian (Italian ryegrass; [11]): 40 | Plant response rating, Ryegrass, Italian (Italian ryegrass; [12]): 0 | Ryegrass, Italian plant response rating (Italian ryegrass; [13]): 85 | Wheat plant response rating (wheat [3]; [8]): 10 | Wheat plant response rating (wheat [3]; [9]): 60 | Plant response rating (0 to 100), Wheat (wheat [3]; Postemergence, 31 g ai/ha): 0 | Plant response rating (0 to 100), Wheat (wheat [3]; Postemergence, 62 g ai/ha): 0 | Plant response rating, Wheat (wheat [3]; [10]): 10 | Plant response rating, Wheat (wheat [3]; [11]): 50 | Plant response rating, Wheat (wheat [3]; [12]): 0 | Wheat plant response rating (wheat [3]; [13]): 85 | Galium plant response rating (catchweed bedstraw; [8]): 85 | Galium plant response rating (catchweed bedstraw; [9]): 90 | Plant response rating, Galium (catchweed bedstraw; [12]): 80 | Galium plant response rating (catchweed bedstraw; [13]): 100 | Bermudagrass plant response rating (bermudagrass; 62 g ai/ha, Preemergence, scale 0 to 100 (0 no effect, 100 complete control)): 100 | Bermudagrass plant response rating (bermudagrass; [9]): 100 | Plant response rating (0 to 100), Bermudagrass (bermudagrass; Postemergence, 31 g ai/ha): 0 | Plant response rating, Bermudagrass (bermudagrass; [14]): 0 | Plant response rating, Bermudagrass (bermudagrass; [10]): 0 | Plant response rating, Bermudagrass (bermudagrass; [11]): 0 | Plant response rating, Bermudagrass (bermudagrass; [12]): 80 | Bermudagrass plant response rating (bermudagrass; [13]): 100 | Goosegrass plant response rating (Goosegrass; [8]): 100 | Goosegrass plant response rating (Goosegrass; [9]): 100 | Plant response rating (0 to 100), Goosegrass (Goosegrass; Postemergence, 31 g ai/ha): 0 | Plant response rating, Goosegrass (Goosegrass; [14]): 0 | Plant response rating, Goosegrass (Goosegrass; [10]): 0 | Plant response rating, Goosegrass (Goosegrass; [11]): 60 | Plant response rating, Goosegrass (Goosegrass; [12]): 98 | Goosegrass plant response rating (Goosegrass; [13]): 100 | Morningglory plant response rating (morningglory [4]; [8]): 100 | Morningglory plant response rating (morningglory [4]; [9]): 100 | Plant response rating (0 to 100), Morningglory (morningglory [4]; Postemergence, 31 g ai/ha): 0 | Plant response rating, Morningglory (morningglory [4]; [14]): 0 | Plant response rating, Morningglory (morningglory [4]; [10]): 0 | Plant response rating, Morningglory (morningglory [4]; [11]): 60 | Plant response rating, Morningglory (morningglory [4]; [12]): 100 | Morningglory plant response rating (morningglory [4]; [13]): 100 | Nutsedge, Yellow plant response rating (yellow nutsedge; [8]): 30 | Nutsedge, Yellow plant response rating (yellow nutsedge; [9]): 40 | Plant response rating (0 to 100), Nutsedge, Yellow (yellow nutsedge; Postemergence, 31 g ai/ha): 0 | Plant response rating, Nutsedge, Yellow (yellow nutsedge; [14]): 0 | Plant response rating, Nutsedge, Yellow (yellow nutsedge; [10]): 0 | Plant response rating, Nutsedge, Yellow (yellow nutsedge; [11]): 60 | Plant response rating, Nutsedge, Yellow (yellow nutsedge; [12]): 0 | Nutsedge, Yellow plant response rating (yellow nutsedge; [13]): 100 | Pigweed plant response rating (pigweed; [8]): 100 | Pigweed plant response rating (pigweed; [9]): 100 | Plant response rating (0 to 100), Pigweed (pigweed; Postemergence, 31 g ai/ha): 0 | Plant response rating (0 to 100), Pigweed (pigweed; Postemergence, 62 g ai/ha): 0 | Plant response rating, Pigweed (pigweed; [10]): 0 | Plant response rating, Pigweed (pigweed; [11]): 45 | Plant response rating, Pigweed (pigweed; [12]): 70 | Pigweed plant response rating (pigweed; [13]): 100 | Soybean plant response rating (soybean; 125 g ai/ha): 60 | Plant response rating (0 to 100), Soybean (soybean; Postemergence, 31 g ai/ha): 5 | Plant response rating (0 to 100), Soybean (soybean; Postemergence, 62 g ai/ha): 15 | Plant response rating, Soybean (soybean; [10]): 20 | Plant response rating, Soybean (soybean; [11]): 50 | Plant response rating, Soybean (soybean; [12]): 0 | Soybean plant response rating (soybean; 250 g ai/ha): 80 | Sunflower plant response rating [5, 8]: 0 | Sunflower plant response rating [5, 9]: 0 | Plant response rating, Sunflower [5, 12]: 0 | Sunflower plant response rating [5, 13]: 0 | Plant response rating, Sedge, Umbrella (umbrella sedge): 100 | Plant response rating, Barnyardgrass (barnyardgrass; 62 g ai/ha): 50 | Plant response rating, Barnyardgrass (barnyardgrass; 250 g ai/ha): 80
